{"source": "patent US20260042731A1", "about": "“(2,4-DICHLOROPHENOXY)ACETIC ACID ANALOGS” (CORTEVA AGRISCIENCE LLC, priority 2022, published 2026)", "key": {"[1]": {"tested_on": "glyphosate resistant Conyza canadensis (L.) (ERICA), horseweed", "test": "Postemergence herbicide evaluation, growth of Conyza canadensis (ERICA)", "type": "in vivo", "conditions": "Erigeron canadensis, post-emergence, percent reduction in plant size vs untreated control, read-out: Ave. ERICA; for pest or weed control at 280 g/ha: 280 g ae/ha; for pest or weed control at 560 g/ha: 560 g ae/ha"}, "[2]": {"tested_on": "Chenopodium album (CHEAL), common lambsquarters", "test": "Postemergence herbicide evaluation, growth of Chenopodium album (CHEAL)", "type": "in vivo", "conditions": "Chenopodium album, post-emergence, percent reduction in plant size vs untreated control, read-out: Ave. CHEAL; for pest or weed control at 280 g/ha: 280 g ae/ha; for pest or weed control at 560 g/ha: 560 g ae/ha"}, "[3]": {"tested_on": "Amaranthus rudis (AMATA), tall water hemp", "test": "Postemergence herbicide evaluation, growth of Amaranthus rudis (AMATA)", "type": "in vivo", "conditions": "Amaranthus tuberculatus, post-emergence, percent reduction in plant size vs untreated control, read-out: Ave. AMATA; for pest or weed control at 280 g/ha: 280 g ae/ha; for pest or weed control at 560 g/ha: 560 g ae/ha"}, "[4]": {"test": "Volatility of compounds measured by thermogravimetric analysis (TGA)", "type": "physicochemical"}, "[5]": {"tested_on": "Abutilon theophrasti (ABUTH), velvetleaf", "test": "Postemergence herbicide evaluation, growth of Abutilon theophrasti (ABUTH)", "type": "in vivo", "conditions": "Abutilon theophrasti, post-emergence, percent reduction in plant size vs untreated control, read-out: AVE. ABUTH; for pest or weed control at 280 g/ha: 280 g ae/ha; for pest or weed control at 560 g/ha: 560 g ae/ha"}, "[6]": {"tested_on": "weeds ABUTH, AMATA, AMBEL, CHEAL, ERICA", "test": "Postemergence herbicide evaluation, overall average % weed control across ABUTH, AMATA, AMBEL, CHEAL and ERICA", "type": "in vivo", "conditions": "post-emergence, average over five weeds, read-out: Overall Ave % Weed Control; for pest or weed control at 280 g/ha: 280 g ae/ha; for pest or weed control at 560 g/ha: 560 g ae/ha"}, "[7]": {"tested_on": "Ambrosia artemisiifolia (AMBEL), common ragweed", "test": "Postemergence herbicide evaluation, growth of Ambrosia artemisiifolia (AMBEL)", "type": "in vivo", "conditions": "Ambrosia artemisiifolia, post-emergence, percent reduction in plant size vs untreated control, read-out: AVE. AMBEL; for pest or weed control at 280 g/ha: 280 g ae/ha; for pest or weed control at 560 g/ha: 560 g ae/ha"}}, "note": "Where two headings read alike, the source gives them in different places."}
{"smiles": "C/C(=N\\OC(=O)COc1ccc(Cl)cc1Cl)C(=O)c1ccccc1", "note": "[Compound A22]", "values": [{"measurement": "pest or weed control at 280 g/ha", "setting": "[1]; 168 h, 7 DAA", "result": 87.5, "unit": "%"}, {"measurement": "pest or weed control at 560 g/ha", "setting": "[1]; 168 h, 7 DAA", "result": 77.5, "unit": "%"}, {"measurement": "pest or weed control at 280 g/ha", "setting": "[1]; 336 h, 14 DAA", "result": 100, "unit": "%"}, {"measurement": "pest or weed control at 560 g/ha", "setting": "[1]; 336 h, 14 DAA", "result": 100, "unit": "%"}, {"measurement": "pest or weed control at 280 g/ha", "setting": "[1]; 504 h, 21 DAA", "result": 99, "unit": "%"}, {"measurement": "pest or weed control at 560 g/ha", "setting": "[1]; 504 h, 21 DAA", "result": 99.5, "unit": "%"}, {"measurement": "pest or weed control at 280 g/ha", "setting": "[2]; 168 h, 7 DAA", "result": 75, "unit": "%"}, {"measurement": "pest or weed control at 560 g/ha", "setting": "[2]; 168 h, 7 DAA", "result": 80, "unit": "%"}, {"measurement": "pest or weed control at 280 g/ha", "setting": "[2]; 336 h, 14 DAA", "result": 97.5, "unit": "%"}, {"measurement": "pest or weed control at 560 g/ha", "setting": "[2]; 336 h, 14 DAA", "result": 99, "unit": "%"}, {"measurement": "pest or weed control at 280 g/ha", "setting": "[2]; 504 h, 21 DAA", "result": 87.5, "unit": "%"}, {"measurement": "pest or weed control at 560 g/ha", "setting": "[2]; 504 h, 21 DAA", "result": 97.5, "unit": "%"}, {"measurement": "pest or weed control at 280 g/ha", "setting": "[3]; 168 h, 7 DAA", "result": 70, "unit": "%"}, {"measurement": "pest or weed control at 560 g/ha", "setting": "[3]; 168 h, 7 DAA", "result": 87.5, "unit": "%"}, {"measurement": "pest or weed control at 280 g/ha", "setting": "[3]; 336 h, 14 DAA", "result": 87.5, "unit": "%"}, {"measurement": "pest or weed control at 560 g/ha", "setting": "[3]; 336 h, 14 DAA", "result": 92.5, "unit": "%"}, {"measurement": "pest or weed control at 280 g/ha", "setting": "[3]; 504 h, 21 DAA", "result": 65, "unit": "%"}, {"measurement": "pest or weed control at 560 g/ha", "setting": "[3]; 504 h, 21 DAA", "result": 87.5, "unit": "%"}, {"measurement": "TGA Data (rate of weight loss, volatility)", "setting": "[4]", "result": 0.42, "unit": "µg/min"}, {"measurement": "pest or weed control at 280 g/ha", "setting": "[5]; 168 h, 7 DAA", "result": 62.5, "unit": "%"}, {"measurement": "pest or weed control at 560 g/ha", "setting": "[5]; 168 h, 7 DAA", "result": 70, "unit": "%"}, {"measurement": "pest or weed control at 280 g/ha", "setting": "[5]; 336 h, 14 DAA", "result": 82.5, "unit": "%"}, {"measurement": "pest or weed control at 560 g/ha", "setting": "[5]; 336 h, 14 DAA", "result": 98.5, "unit": "%"}, {"measurement": "pest or weed control at 280 g/ha", "setting": "[5]; 504 h, 21 DAA", "result": 97, "unit": "%"}, {"measurement": "pest or weed control at 560 g/ha", "setting": "[5]; 504 h, 21 DAA", "result": 99.5, "unit": "%"}, {"measurement": "pest or weed control at 280 g/ha", "setting": "[6]; 168 h, 7 DAA", "result": 74.5, "unit": "%"}, {"measurement": "pest or weed control at 560 g/ha", "setting": "[6]; 168 h, 7 DAA", "result": 79.5, "unit": "%"}, {"measurement": "pest or weed control at 280 g/ha", "setting": "[6]; 336 h, 14 DAA", "result": 87, "unit": "%"}, {"measurement": "pest or weed control at 560 g/ha", "setting": "[6]; 336 h, 14 DAA", "result": 96.5, "unit": "%"}, {"measurement": "pest or weed control at 280 g/ha", "setting": "[6]; 504 h, 21 DAA", "result": 89.7, "unit": "%"}, {"measurement": "pest or weed control at 560 g/ha", "setting": "[6]; 504 h, 21 DAA", "result": 96.8, "unit": "%"}, {"measurement": "pest or weed control at 280 g/ha", "setting": "[7]; 168 h, 7 DAA", "result": 77.5, "unit": "%"}, {"measurement": "pest or weed control at 560 g/ha", "setting": "[7]; 168 h, 7 DAA", "result": 82.5, "unit": "%"}, {"measurement": "pest or weed control at 280 g/ha", "setting": "[7]; 336 h, 14 DAA", "result": 67.5, "unit": "%"}, {"measurement": "pest or weed control at 560 g/ha", "setting": "[7]; 336 h, 14 DAA", "result": 92.5, "unit": "%"}, {"measurement": "pest or weed control at 280 g/ha", "setting": "[7]; 504 h, 21 DAA", "result": 100, "unit": "%"}, {"measurement": "pest or weed control at 560 g/ha", "setting": "[7]; 504 h, 21 DAA", "result": 100, "unit": "%"}]}
